Entries after “also recorded” stand apart in the source; their conditions may differ.
Legend:
[1] = molecular target: T1, murine SR-BI (Mus musculus, UniProt Q61009); experiment: Uptake of DiI from DiI-HDL by ldlA[mSR-BI] cells (high throughput screen and concentration dependence); assay type: cell-based; conditions: for EC50: inhibition, mean ± SD, n=3
T1 construct: expressed in transfected cells; host or cells: ldlA-7 (LDL receptor deficient Chinese hamster ovary cells)
T1 sequence (Q61009 1-509): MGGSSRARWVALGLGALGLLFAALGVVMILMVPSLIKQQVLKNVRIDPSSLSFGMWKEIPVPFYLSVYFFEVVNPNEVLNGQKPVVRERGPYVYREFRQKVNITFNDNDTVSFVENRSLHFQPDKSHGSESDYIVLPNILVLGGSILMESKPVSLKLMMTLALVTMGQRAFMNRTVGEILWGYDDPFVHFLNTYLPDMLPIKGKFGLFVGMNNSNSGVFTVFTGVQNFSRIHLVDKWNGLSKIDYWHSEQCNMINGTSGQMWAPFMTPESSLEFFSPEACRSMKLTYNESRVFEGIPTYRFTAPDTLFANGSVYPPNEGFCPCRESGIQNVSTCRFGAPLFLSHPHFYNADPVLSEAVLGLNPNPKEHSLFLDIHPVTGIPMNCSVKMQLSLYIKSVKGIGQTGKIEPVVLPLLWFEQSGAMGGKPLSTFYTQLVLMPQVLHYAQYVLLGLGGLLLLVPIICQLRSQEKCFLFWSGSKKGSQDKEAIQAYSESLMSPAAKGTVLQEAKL

[2] = molecular target: T1, murine SR-BI; experiment: Uptake of [3H]cholesteryl ether from [3H]CE-HDL by ldlA[mSR-BI] cells; assay type: cell-based; conditions: for EC50: inhibition, mean ± SD, n=6 (n=5 where footnoted), read-out: (A) EC50 [^3H]CEt HDL uptake
Procedure: (§1) Cells were pre-incubated with BLTs for 1 hr (or 2.5 hrs for transferrin, EGF and cholera toxin uptake experiments) and all the experiments were performed at 37° C. Detailed characterization of the BLTs and their effects was performed with compounds whose identities and purities were confirmed by LC-MS.
(§2) Assays for the uptake of lipids from DiI-HDL and [^3]CE-HDL, efflux of [^3H]cholesterol from labeled cells, and ^125I-HDL binding were performed as described by Acton et al. Science (1996) January 26;271(5248):518-20; Gu, et al. J Biol. Chem. (2000) September 29;275(39):29993-30001; and Ji, et al., J. Biol. Chem. (1997) 272, 20982-5. In some experiments, values were normalized so that the 100% of control represents activity in the absence of compounds and 0% represents activity determined in the presence of a 40-fold excess of unlabeled HDL or, for Y1-BS1 cells, in the presence of a 1:500 dilution of the KKB-1 blocking antibody (Gu, et al., 2000, generous gift from Karen Kozarsky). The amounts of cell-associated [^3H]cholesteryl ether are expressed as the equivalent amount of [^3H]CE-HDL protein (ng) to permit direct comparison of the relative amounts of ^125I-HDL binding and [^3H]CE uptake.

[3] = molecular target: T2, SR-BI (Mus musculus, UniProt Q61009); experiment: Uptake of [3H]CE from [3H]CE-HDL by Y1-BS1 adrenocortical cells; assay type: cell-based, murine; conditions: inhibition, n=2, read-out: (A) EC50 [^3H]CEt HDL uptake (Y1-BS1 cells)
T2 construct: endogenous in cells; host or cells: Y1-BS1 murine adrenocortical cells (ACTH induced)
T2 sequence (Q61009 1-509): T1 sequence (Q61009 1-509)
From the text: Biol. Chem. 273, 26338-48; Gu, et al. (2000) J. Biol. Chem. 275, 29993-30001; Acton, et al. (1994) J. Biol. Chem. 269, 21003-9; Pitas, et al. (1981) Arteriosclerosis 1, 177-85). LDL receptor deficient Chinese hamster ovary cells that express low levels of endogenous SR-BI, ldlA-7 (Kingsley, et al. (1984) Proc. Nat. Acad. Sci. USA 81, 5454-8), ldlA-7 cells stably transfected to express high levels of murine SR-BI (ldlA[mSR-BI])(Acton, et al., 1996), Y1-BS1 murine adrenocortical cells that express high levels of SR-BI after induction with ACTH (Rigotti, et al. (1996) J. Biol. Chem. 271, 33545-9), monkey kidney BS-C1 cells (Kapoor, et al. (2000) Journal of Cell Biology 150, 975-88) and HeLa cells (Temel, et al. (2002) J Biol Chem 8, 8) were maintained as previously described.
as §1, §2

[4] = molecular target: T1, murine SR-BI; experiment: Efflux of [3H]cholesterol from ldlA[mSR-BI] cells to HDL; assay type: cell-based; conditions: for EC50: inhibition of efflux to HDL, mean ± SD, n=3
Procedure: as §1, §2
In addition to mediating selective lipid uptake from HDL, SR-BI can facilitate the efflux of unesterified cholesterol from cells to HDL particles (Jian, et al. (1998) J Biol Chem 273, 5599-606. Ji, et al. (1997) J. Biol. Chem. 272, 20982-5). To determine if the BLTs could inhibit this SR-BI-mediated lipid transport activity, cells were labeled with [^3H]cholesterol and its efflux to unlabeled HDL measured in the presence or absence of the BLTs. (FIG. 2C, table II). Cells were incubated for 3 hrs in the absence (top panels) or presence (bottom panels) of 50 micromolar BLT-1 (MIT 9952-53) and epifluorescence light microscopy was used to monitor the following cellular activities: clathrin-dependent endocytosis of fluorescently labeled transferrin (A,B; HeLa cells) and EGF (C,D; HeLa cells); clathrin-independent endocytosis of fluorescently labeled cholera toxin (E, F; BSC-1 cells), and transport of the temperature sensitive fluorescent membrane protein VSVG^ts045-EGFP from the ER to the cell surface (G,H; BSC-1 cells). In addition, the intracellular distributions of the actin cytoskeleton (visualized with rhodamine labeled phalloidin, I,J; ldlA-[mSRBI] cells) and the tubulin network (visualized with fluorescently labeled antibodies specific to y-tubulin, K,L; BSC-1 cells) were determined. BLT-1 (MIT 9952-53) and the other BLTs (not shown) had no effects on any of these cellular properties or activities.

[5] = molecular target: T1, murine SR-BI; experiment: 125I-HDL binding to ldlA[mSR-BI] cells; conditions: for (B) Binding Parameters Bmax: 125I-HDL binding sites in presence of BLT at its ICCE95, no BLT control 100.0 ± 18.4; for Effect on HDL binding to SR-BI / EC50: ldlA[mSR-BI] cells; for EC50: enhancement of HDL binding, 10 μg protein/ml HDL, mean ± SD, n=3, read-out: (A) EC50 ^1nI-HDL binding
Procedure: as §1, §2
It was initially expected that the BLTs would function by inhibiting HDL binding to SR-BI. However, when cells were incubated with a sub-saturating concentration of either [^3H]CE-HDL or ^125I-labeled HDL (^125I-HDL) (10 μg protein/ml) and increasing amounts of compound (FIG. 5), the decreases in [^3H]CE uptake (solid lines, no symbols, data from FIG. 2B) and [3H]cholesterol efflux (dashed lines, data from FIG. 2C) were accompanied by corresponding increases in ^125I-HDL binding (solid lines, square symbols). The concentration dependence of ^125I-HDL binding was determined in the presence or absence of BLTs at their ICCE95 concentrations (FIG. 6 and Table II).

[6] = molecular target: T1, murine SR-BI; experiment: Rate of 125I-HDL dissociation from cells; conditions: dissociation of 125I-HDL from ldlA[mSR-BI] cells in presence of BLT; no BLT control 0.11; n=2; read-out: (B) Binding Parameters Koff (converted)
Procedure: The rates of HDL dissociation from cells were determined by incubation of the cells with ^125I-HDL (10 μg protein/ml, 2 hrs, 37° C.) with and without BLTs. The medium was then either replaced with the same medium in which the ^125I-HDL was substituted by a 40-fold excess of unlabeled HDL or a 40-fold excess of unlabeled HDL was added to the labeled incubation medium. The amounts of cell-associated ^125I-HDL were then determined as a function of time. The two methods gave similar results.

[7] = system: HeLa cells; experiment: Receptor mediated endocytosis of labeled transferrin and EGF, fluorescence microscopy; assay type: cell-based; conditions: BLTs at ICCE95, 50 micromolar BLT-1, 3 hrs
[8] = system: BSC-1 cells; assay type: cell-based, monkey; conditions: BLTs at ICCE95, 50 micromolar BLT-1, 3 hrs
[9] = system: BSC-1 cells; assay type: cell-based, monkey
[10] = system: ldlA[mSR-BI] cells; experiment: Distribution of actin and tubulin networks, fluorescence microscopy; assay type: cell-based, Chinese hamster; conditions: BLTs at ICCE95; 50 micromolar BLT-1, 3 hrs
[11] = DiI uptake from DiI-HDL, compounds at nominal 10 micromolar, ldlA[mSR-BI] cells

SMILES	EC50 ([1]; ldlA[mSR-BI] cells)	ICCE95 concentration (inhibits [3H]CE uptake by 95%) [2]	EC50 [2]	EC50 [3]	EC50 [4]	(B) Binding Parameters Bmax [5]	Effect on HDL binding to SR-BI [5]	EC50 [5]	koff [6]	ENDOHDL Test 1 [1]	ENDOHDL Test 2 [1]	also measured
COc1ccccc1NC(=O)Nc1ccc2ccccc2c1 [MIT 9952-29]	2000 ± 1000 nM	50 µM	3900 nM	4400 nM	54900 ± 35200 nM	79.9 ± 15.9%	enhanced	24900 ± 14800 nM	0.00137 s⁻¹	–	–	ICFC50 for efflux compared with that for uptake [4]: higher
c1ccc(-c2noc(-c3ccccc3)c3cccc2-3)cc1 [MIT 9952-19]	510 ± 150 nM	50 µM	2300 ± 1500 nM	1700 nM	17200 ± 4000 nM	85.8 ± 15.8%	enhanced	46500 ± 49300 nM	0.00133 s⁻¹	–	–	ICFC50 for efflux compared with that for uptake [4]: higher
C/C(=N\NC(=O)c1ccccc1I)c1ccc(N)cc1 [MIT 9952-6]	7100 ± 3700 nM	50 µM	13800 nM	8000 nM	75300 ± 40100 nM	92.1 ± 36.8%	enhanced	18000 ± 3700 nM	0.00132 s⁻¹	0.52	0.54	ICFC50 for efflux compared with that for uptake [4]: higher
CCCCOCCC1CCC/C1=N\NC(N)=S (centres unmarked) [MIT 9952-61]	350 ± 180 nM	1 µM	240 ± 100 nM	410 nM	470 ± 230 nM	93.0 ± 20.5%	enhanced	250 ± 130 nM	0.00103 s⁻¹	0.7	0.57	Inhibition of SR-BI-mediated lipid transport / DiI uptake, concentration range in words ([1]; ldlA[mSR-BI] cells): inhibited in the nanomolar range
CCCCCCC1CCC/C1=N\NC(N)=S (centres unmarked) [MIT 9952-53]	60 ± 40 nM	1 µM	110 ± 80 nM	380 nM	150 ± 90 nM	95.8 ± 10.1%	enhanced	88 ± 50 nM	0.001 s⁻¹	0.53	0.46	Inhibition of SR-BI-mediated lipid transport / DiI uptake, concentration range in words ([1]; ldlA[mSR-BI] cells, listed as BLT-1): low nanomolar concentration range; also recorded: inhibited in the nanomolar range; Uptake and intracellular distribution of labeled transferrin and EGF (clathrin-dependent endocytosis) [7]: no effects; Uptake of labeled cholera toxin (clathrin-independent endocytosis) [8]: no effects; Secretory pathway: transport of VSVGts045-EGFP from ER to cell surface [9]: no effects; Integrity/distribution of actin and tubulin networks [10]: no effects
O=C(COc1ccc(Cl)cc1)N/N=C/c1ccc(Cl)cc1 [MIT 9952-124]	–	–	–	–	–	–	–	–	–	1.33	1.17	–
CC(CC(=O)NCCc1c[nH]c2ccccc12)C(=O)Cl (centres unmarked) [MIT 9952-12]	–	–	–	–	–	–	–	–	–	1.25	1.26	–
CSc1sc(SC)c(C[n+]2ccccc2)c1C[n+]1ccccc1.[I-].[I-] [MIT 9952-85]	–	–	–	–	–	–	–	–	–	0.56	0.68	–
CCSC(=O)C(NC1=C(C)C(=O)N1)c1ccccc1 (centres unmarked) [MIT 9952-292]	–	–	–	–	–	–	–	–	–	–	–	ENDOHDL Test 1 [1, 11]: 0.47; ENDOHDL Test 2 [1, 11]: 0.58
COC(=O)Cn1c2c(c3cc(C)ccc31)CCCC2NC(C)c1ccccc1 (centres unmarked) [MIT 9952-180]	–	–	–	–	–	–	–	–	–	0.43	0.45	–
Cc1cccc(C(=O)Nc2cccc(Cl)c2)c1 [MIT 9952-279]	–	–	–	–	–	–	–	–	–	–	–	ENDOHDL Test 1 [1, 11]: 0.64; ENDOHDL Test 2 [1, 11]: 0.63
Cc1ccc(C(C)C)c(OCC(=O)Nc2cc([N+](=O)[O-])ccc2C)c1 [MIT 9952-153]	–	–	–	–	–	–	–	–	–	0.6	0.57	–
CC(C)(C)c1ccc(C(=O)Nc2cccc(NC(=O)c3cccc([N+](=O)[O-])c3)c2)cc1 [MIT 9952-331]	–	–	–	–	–	–	–	–	–	–	–	ENDOHDL Test 1 [1, 11]: 0.63; ENDOHDL Test 2 [1, 11]: 0.35
Nc1cc2cccnc2c2ncccc12 [MIT 9952-341]	–	–	–	–	–	–	–	–	–	–	–	ENDOHDL Test 1 [1, 11]: 0.61; ENDOHDL Test 2 [1, 11]: 0.51
CCCCN1CCC(O)(c2ccccc2)C(C(=O)c2ccccc2)C1 (centres unmarked) [MIT 9952-142]	–	–	–	–	–	–	–	–	–	1.28	1.32	–

Source: patent US20040171073A1, “Compounds for modulation of cholesterol transport” (Massachusetts Institute of Technology, priority 2002, published 2004)
